Several values for one entry are separate records, joined by “and”; a condition that tells them apart may be missing. Equal entries are not always repeated. Entries after “also recorded” stand apart in the source; their conditions may differ.
What was measured:
[1] = Mouse liver microsome stability assay; format: in vitro ADME; settings: 10 μM compound; for half-life at 10 μM: mouse, liver microsomes, read-out: Half-life (min) (MouseLM); for % left (MouseLM), (1 h): cells marked (1 h)
Description: (§1) Human and mouse liver microsomes were obtained fom BD Gentest.
(§2) Each evaluation included six independent assays carried out three at a time, on two different days
(§3) 2. For a total volume of Microsomal Assay Mixture (MAM) 390 μL, sufficient for seven time points, combine the following
(§4) 3. Sonicate MAM for 5 min and meanwhile thaw microsomes (20 mg/mL) (BD Gentest, Cat #452156) on ice.
(§5) 4. Aliquot 100 μL of ice cold ISTD into 7 separate 1.5 mL conical vials and label them the time points for 0, 10, 20, 40, 60, 90, and 120 min.
(§6) 5. Arrange the timer. Microsomes (Final concentration of 0.5 mg/mL) should be added to all time points except the zero time point.
(§7) 6. Add 50 μL of the MAM solution to the conical vial labelled as zero time point. Place the remaining MAM solution in the incubator (37° C.) for 5 min and initiate the reaction with addition of microsomes (8.8 μL) and record the time.
(§8) 7. At the end of each time interval remove 50 μL and add 100 μL to ISTD in conical vial, sonicate for 10 sec and spin down at 10,000 rpm for 5 minutes.
(§9) 8. Take 100 μL of supernatant and transfer to Spin-X HPLC filter tubes (Corning Incorporated, Cat #8169) and centrifuge at 13,000 rpm for 5 minutes and take 5 μL from this solution and dilute in 495 μL of LCMS grade methanol (Fischer scientific, CAS #67-56-1) in an 2 mL glass auto sampler vial (Microsolv, Cat #95025-WCV) 9. The samples are analyzed by LCMS-8040. (Shimadzu)
(§10) Calculation: From the peak area, calculate the following
(§11) The compounds are tested for the metabolic stability in the Human and Mouse Liver microsomes at 10 μM concentration.

HEK293 = experiment: Cytotoxicity assay (CellTiter-Glo), HEK293; format: cell-based, human; settings: 48 hours incubation
Description: Human liver hepatocellular carcinoma (HEPG2) and human embryonic kidney 293 (HEK293) cell lines were purchased (ATCC) and cultured in 75 cm2 flasks (CellStar). Cells were grown in DMEM/High Glucose (Hyclone, #SH3024301) media to which non-essential amino acids (Hyclone, #SH30238.01), 10 mM HEPES (Hyclone, #SH302237.01), 5×106 units of penicillin and streptomycin (Hyclone, #SV30010), and 10% of heat inactivated fetal bovine serum (Gibco, #10082147) were added. Cells were harvested using 0.05% Trypsin (Hyclone, #SH3023601), washed with PBS, and dispensed into sterile white, optical bottom 384-well plates (NUNC, #142762). After three hours, small molecule solutions were transferred with a Tecan Freedom EVO liquid handling system equipped with a 100 nL pin tool (V&P Scientific). The controls (E)-10-(bromotriphenylphosphoranyl)decyl 4-(4-(tert-butyl)phenyl)-4-oxobut-2-enoate (400 μM in DMSO, positive control) and DMSO (negative control). The cells were incubated for 48 hours followed by the addition of CellTiter-Glo™, a luminescence-based cell viability assay (Promega, Madison, Wis.). All luminescence readings were performed on a Tecan Infinite M1000 plate reader. The assay was carried out in quadruplet with three independent runs. The data was normalized to the controls and analyzed by nonlinear regression (GraphPad Prism).

[2] = test system: mice subjected to chronic restraint stress (CRS); experiment: Y-maze alternation task, chronic restraint stress (CRS) mice; format: in vivo, mouse
Description: C57/B16 mice, males and females were ordered from Jackson Laboratories at 8 weeks old and were kept in normal housing conditions (12 h light ON cycle starting at 7 am/water and food ad libitum) for one week. During this week, animals were single housed and handled to reduce the anxiety-like response toward the experimenter. To induce a working memory deficit, mice were subjected to a chronic restraint stress protocol (CRS). They were placed in a 50 ml Falcon® tube, twice a day, for 1 hour during their diurnal cycle. The time of occurrence of the stress was randomized every day to avoid predictability. CRS was not applied on testing days. Y-maze test occurred 15 hours minimum after the last stressor.
Mice were first habituated to the Y-maze apparatus and distal cues during 2 consecutive days over a 10 min free exploration session (one session per day). The next day, animals performed a training session consisting in seven successive trials separated by a 30 s inter-trial interval (ITI); during this training session, mice were familiarized with the experimental procedure (opening and closing of the doors and confinement into the goal arms). For each trial, mice remained in the start-box for a 30 s ITI. Then, the door was opened and the mouse was allowed to enter freely one of the two goal arms; the chosen arm was closed and the choice was recorded. After a 30 s confinement period into the chosen arm, the mouse was removed and brought back to the start-box for a second trial identical to the first one and this procedure was repeated over the series of trials.
The same general procedure used in the training session was implemented 24 h later, except that the ITI was lengthened to 90 s. For this experiment, animals were acutely injected i.p. with vehicle or αPAM, 30 minutes before the beginning of the test. To dissociate memory deficits from an eventual progressive loss of motivation to alternate over the series, an 8th trial was added to the series which was separated from the 7th trial by a shorter ITI (5 s). All animals failing to alternate at the 8th trial were excluded. The mean alternation rate was calculated and was expressed in percentage (number of alternation done by the animal/total number of alternation possible×100)±SEM. The percentage of alternation during the entire task is considered as an index of working memory performance (50% of being a random alternation rate). Factorial ANOVA was applied to the data to reveal differences between groups. If the ANOVA was significant for group effect (p<0.05), Scheffe post-hoc analysis were conducted to identify which groups are different from each other.
All drugs were diluted in a vehicle solution containing 85% H2O, 14% propylene glycol (Sigma Aldrich) and 1% Tween 80 (Sigma Aldrich). Working solutions were prepared at a concentration of 10 mg/mL and administered i.p. adjusted to the body weight of each animal. Doses used were either 1, 5, 10 or 20 mg/kg. For all Y maze experiments, animals were acutely injected i.p. with vehicle or αPAM, 30 minutes before the beginning of the test.

[3] = Human liver microsome stability assay; format: in vitro ADME; settings: 10 μM compound; for half-life at 10 μM: human, liver microsomes, read-out: Half-life (min) (HumanLM); for % left (Human LM), (1 h): cells marked (1 h)
Description: as §1, §2, §3, §4, §5, §6, §7, §8, §9, §10, §11

mice = experiment: Home cage locomotor activity in mice; format: in vivo, mouse; settings: vs vehicle
Description: Mice were placed in a clean cage, similar to their home-cage (28.2×17.1 cm), without bedding and lid to allow video recording from the top. Tacking was performed and distance travelled (30 min session) was analyzed using ANY-Maze™ tracking software (version 499z) to assess the locomotor activity in a home-cage environment. Animals received a single dose of compound or vehicle solution 1 hour before testing.
Drug preparation and administration: All drugs were diluted in a vehicle solution containing 85% H2O, 14% propylene glycol (Sigma Aldrich) and 1% Tween 80 (Sigma Aldrich). Working solutions were prepared at a concentration of 20 mg/mL and administered i.p. adjusted to the body weight of each animal. Doses used were either 1, 5 or 10 mg/kg. For all locomotor activity experiments, animals were acutely injected i.p. with vehicle or αPAM, 1 hour before the beginning of the test.

[4] = 1 mg/kg i.p. 30 min before testing
[5] = 10 mg/kg i.p. 30 min before testing
[6] = 1 mg/kg i.p. 60 min before testing
[7] = 5 mg/kg i.p. 60 min before testing
[8] = 10 mg/kg i.p. 60 min before testing
[9] = 5 mg/kg i.p. 30 min before testing

Structure (SMILES)	% left after 2 hr. (MouseLM) [1]	half-life at 10 μM [1] [min]	HEK293 LD50 (HEK293) [µM]	effect on CRS-induced working memory deficit (percent alternation rate, Y-maze) [2, 4]	effect on CRS-induced working memory deficit (percent alternation rate, Y-maze) [2, 5]	% left after 2 hr. (Human LM) ([3]; 2 hr) [%]	half-life at 10 μM [3] [min]	Half-life (min) (MouseLM) [1]	% left (MouseLM), (1 h) [1]	locomotor activity (distance travelled, 30 min session) (mice; [6])	locomotor activity (distance travelled, 30 min session) (mice; [7])	locomotor activity (distance travelled, 30 min session) (mice; [8])	effect on CRS-induced working memory deficit (percent alternation rate, Y-maze) [2, 9]	effect on CRS-induced working memory deficit (percent alternation rate, Y-maze) ([2]; 20 mg/kg i.p. 30 min before testing)	Half-life (min) (HumanLM) [3]	Alternation rate (%) ([2]; Dose 1-5-10 mg/kg)	Alternation rate (%) ([2]; Dose 10 mg/kg)	% left (Human LM), (1 h) [3] [%]	locomotor activity (distance travelled, 30 min session) (mice; i.p. 60 min before testing, dose not given)	Alternation rate (%) ([2]; Dose 5 mg/kg)
C#Cc1ccc2c(c1)C(c1ccccc1F)=N[C@@H](C)c1c(C(=O)N(C)C)ncn1-2 [GL-I-54, (S)-8-ethynyl-6-(2-fluorophenyl)-N,N,4-trimethyl-4H-benzo[f]imidazo[1,5-a][1,4]diazepine-3-carboxamide]	15.0% and 15.0 ± 3.0%	53 ± 10	>400	decreased performance	significant reversal of CRS-induced impairment in working memory; also recorded: significant pro-cognitive effect	36.4 ± 2.0	100 ± 4.5													
C#Cc1ccc2c(c1)C(c1ccccc1F)=N[C@H](C)c1c(C(=O)N(C)C)ncn1-2 [GL-II-73, (R)-8-ethynyl-6-(2-fluorophenyl)-N,N,4-trimethyl-4H-benzo[f]imidazo[1,5-a][1,4]diazepine-3-carboxam]			>200		pro-cognitive effect			309 ± 36	81.6% and 86.6 ± 0.2%	no significant effect; also recorded: no effect on locomotor activity	significant increase in locomotion; also recorded: significant increase in distance traveled	significant increase in locomotion; also recorded: significant increase in distance traveled	pro-cognitive effect	pro-cognitive effect	755 ± 243					
C#Cc1ccc2c(c1)C(c1ccccc1F)=N[C@H](C)c1c(C(=O)NCC)ncn1-2 [GL-II-74, (R)—N-ethyl-8-ethynyl-6-(2-fluorophenyl)-4-methyl-4H-benzo[f]imidazo[1,5-a][1,4]diazepine-3-carboxamide]		69 ± 3					751 ± 214		56.5 ± 0.3%	no significant effect; also recorded: no effect on locomotor activity	no significant effect; also recorded: no effect on locomotor activity	significant increase in locomotion; also recorded: significant increase in distance traveled				<58.3				
C#Cc1ccc2c(c1)C(c1ccccc1F)=N[C@H](C)c1c(C(=O)NC3CC3)ncn1-2 [GL-II-75, (R)—N-cyclopropyl-8-ethynyl-6-(2-fluorophenyl)-4-methyl-4H-benzo[f]imidazo[1,5-a][1,4]diazepine-3-carboxamide]		239 ± 22		significant reversal of CRS-induced impairment in working memory; also recorded: significant pro-cognitive effect	significant reversal of CRS-induced impairment in working memory; also recorded: significant pro-cognitive effect		712 ± 165		83.5 ± 0.2%	significant increase in locomotion; also recorded: significant increase in distance traveled	no significant effect; also recorded: no effect on locomotor activity	significant increase in locomotion; also recorded: significant increase in distance traveled	significant reversal of CRS-induced impairment in working memory; also recorded: significant pro-cognitive effect							
C#Cc1ccc2c(c1)C(c1ccccc1F)=N[C@H](C)c1c(C(=O)N3CCCC3)ncn1-2 [GL-II-76, (R)-(8-ethynyl-6-(2-fluorophenyl)-4-methyl-4H-benzo[f]imidazo[1,5-a][1,4]diazepin-3-yl)(pyrrolidin-1-yl)methanone]		23 ± 1	>100				154 ± 5		18.6 ± 0.3%								47.2	75 ± 0.1		
C#Cc1ccc2c(c1)C(c1ccccc1F)=N[C@H](C)c1c(C(=O)NC)ncn1-2 [MP-III-022]	76.6% and 76.6 ± 0.2%	164 ± 10	>100				141 ± 18											69.4 ± 0.4	no significant difference; also recorded: no effect	45.5

Source: patent US10906909B2, “Treatment of cognitive and mood symptoms in neurodegenerative and neuropsychiatric disorders with ALPHA5-containing GABAA receptor agonists” (UWM Research Foundation, Inc., priority 2016, dated 2021)
